Experimental data taken from PubChem BioAssay (NCI).
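96-well plates; 48 h exposure; 5 concentrations. Endpoints by linear interpolation between flanking doses. Not reached: highest tested concentration assigned. The concentration for 50% growth inhibition is given as GI50. TGI marks complete inhibition of growth.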

Assays:
Assay in all cases: DTP human tumour cell line panel, 48 h
[1] = system: OVCAR-8 ovarian
[2] = system: HCT-15 colon
[3] = system: KM12 colon
[4] = system: M14 melanoma
[5] = system: UACC-62 melanoma
[6] = system: NCI-H23 lung
[7] = system: SNB-19 CNS
[8] = system: SK-MEL-5 melanoma
[9] = system: T-47D breast
[10] = system: SNB-75 CNS
[11] = system: MALME-3M melanoma
[12] = system: LOX IMVI melanoma
[13] = system: HOP-62 NSCLC
[14] = system: SF-268 CNS
[15] = system: DU-145 prostate
[16] = system: TK-10 renal
[17] = system: SK-MEL-28 melanoma
[18] = system: BT-549 breast
[19] = system: OVCAR-4 ovarian
[20] = system: COLO 205 colon
[21] = system: K-562 leukemia
[22] = system: MDA-MB-231 breast
[23] = system: SK-OV-3 ovarian
[24] = system: A498 renal
[25] = system: EKVX NSCLC
[26] = system: CCRF-CEM leukemia
[27] = system: 786-0 renal
[28] = system: SR leukemia
[29] = system: NCI-H226 lung
[30] = system: HS 578T breast
[31] = system: HCT-116 colon
[32] = system: MDA-MB-435
[33] = system: HT29 colon
[34] = system: CAKI-1 renal
[35] = system: OVCAR-5 ovarian
[36] = system: OVCAR-3 ovarian
[37] = system: MOLT-4 leukemia
[38] = system: RXF 393 renal
[39] = system: PC-3 prostate
[40] = system: SF-539 CNS
[41] = system: SF-295 CNS
[42] = system: NCI/ADR-RES ovarian
[43] = system: ACHN renal
[44] = system: A549 NSCLC
[45] = system: HCC-2998 colon
[46] = system: UO-31 renal
[47] = system: HOP-92 NSCLC
[48] = system: UACC-257 melanoma
[49] = system: SW-620 colon
[50] = system: RPMI-8226 leukemia
[51] = system: HL-60(TB) leukemia
[52] = system: IGROV1 ovarian
[53] = system: MCF7 breast
[54] = system: SK-MEL-2 melanoma
[55] = system: NCI-H460 lung
[56] = system: SN12C renal
[57] = system: NCI-H522 lung
[58] = system: U251 CNS

Cn1c(-c2cccc(N)c2)[n+](C)c2ccccc21
TGI [1]: > 100 µM | TGI [2]: > 100 µM | TGI [3]: > 100 µM | TGI [4]: > 100 µM | TGI [5]: > 100 µM | TGI [6]: > 100 µM | TGI [7]: > 100 µM | TGI [8]: > 100 µM | TGI [9]: > 100 µM | TGI [10]: > 100 µM | TGI [11]: > 100 µM | TGI [12]: > 100 µM | TGI [13]: > 100 µM | TGI [14]: > 100 µM | TGI [15]: > 100 µM | TGI [16]: > 100 µM | TGI [17]: > 100 µM | TGI [18]: > 100 µM | TGI [19]: > 100 µM | TGI [20]: > 100 µM | TGI [21]: > 100 µM | TGI [22]: > 100 µM | TGI [23]: > 100 µM | TGI [24]: > 100 µM | TGI [25]: > 100 µM | TGI [26]: > 100 µM | TGI [27]: > 100 µM | TGI [28]: > 100 µM | TGI [29]: > 100 µM | TGI [30]: > 100 µM | TGI [31]: > 100 µM | TGI [32]: > 100 µM | TGI [33]: > 100 µM | TGI [34]: > 100 µM | TGI [35]: > 100 µM | TGI [36]: > 100 µM | TGI [37]: > 100 µM | TGI [38]: > 100 µM | TGI [39]: > 100 µM | TGI [40]: > 100 µM | TGI [41]: > 100 µM | TGI [42]: > 100 µM | TGI [43]: > 100 µM | TGI [44]: > 100 µM | TGI [45]: > 100 µM | TGI [46]: > 100 µM | TGI [47]: > 100 µM | TGI [48]: > 100 µM | TGI [49]: > 100 µM | TGI [50]: > 100 µM | TGI [51]: > 100 µM | TGI [52]: > 100 µM | TGI [53]: > 100 µM | TGI [54]: > 100 µM | TGI [55]: > 100 µM

CC(C)OP(=O)(OC(C)C)c1ncc(-c2ccc(C(F)(F)F)cc2)c(NC2CCCCCC2)n1
GI50 [1]: > 10 µM | TGI [1]: > 10 µM | GI50 [2]: > 10 µM | TGI [2]: > 10 µM | GI50 [3]: > 10 µM | TGI [3]: > 10 µM | GI50 [4]: > 10 µM | TGI [4]: > 10 µM | GI50 [5]: > 10 µM | TGI [5]: > 10 µM | GI50 [6]: > 10 µM | TGI [6]: > 10 µM | GI50 [7]: > 10 µM | TGI [7]: > 10 µM | GI50 [8]: > 10 µM | TGI [8]: > 10 µM | GI50 [9]: > 10 µM | TGI [9]: > 10 µM | GI50 [10]: > 10 µM | TGI [10]: > 10 µM | GI50 [11]: > 10 µM | TGI [11]: > 10 µM | GI50 [12]: > 10 µM | TGI [12]: > 10 µM | GI50 [13]: > 10 µM | TGI [13]: > 10 µM | GI50 [14]: > 10 µM | TGI [14]: > 10 µM | GI50 [56]: > 10 µM | TGI [56]: > 10 µM | GI50 [15]: > 10 µM | TGI [15]: > 10 µM | GI50 [16]: > 10 µM | TGI [16]: > 10 µM | GI50 [17]: > 10 µM | TGI [17]: > 10 µM | GI50 [18]: > 10 µM | TGI [18]: > 10 µM | GI50 [57]: > 10 µM | TGI [57]: > 10 µM | GI50 [19]: > 10 µM | TGI [19]: > 10 µM | GI50 [20]: > 10 µM | TGI [20]: > 10 µM | GI50 [21]: > 10 µM | TGI [21]: > 10 µM | GI50 [22]: > 10 µM | TGI [22]: > 10 µM | GI50 [23]: > 10 µM | TGI [23]: > 10 µM | GI50 [24]: > 10 µM | TGI [24]: > 10 µM | GI50 [26]: > 10 µM | TGI [26]: > 10 µM | GI50 [27]: > 10 µM | TGI [27]: > 10 µM | GI50 [28]: > 10 µM | TGI [28]: > 10 µM | GI50 [29]: > 10 µM | TGI [29]: > 10 µM | GI50 [30]: > 10 µM | TGI [30]: > 10 µM | GI50 [31]: > 10 µM | TGI [31]: > 10 µM | GI50 [32]: > 10 µM | TGI [32]: > 10 µM | GI50 [33]: > 10 µM | TGI [33]: > 10 µM | GI50 [34]: > 10 µM | TGI [34]: > 10 µM | GI50 [35]: > 10 µM | TGI [35]: > 10 µM | GI50 [36]: > 10 µM | TGI [36]: > 10 µM | GI50 [37]: > 10 µM | TGI [37]: > 10 µM | GI50 [38]: > 10 µM | TGI [38]: > 10 µM | GI50 [39]: 9.51 µM | TGI [39]: > 10 µM | GI50 [40]: > 10 µM | TGI [40]: > 10 µM | GI50 [41]: > 10 µM | TGI [41]: > 10 µM | GI50 [42]: > 10 µM | TGI [42]: > 10 µM | GI50 [43]: > 10 µM | TGI [43]: > 10 µM | GI50 [44]: > 10 µM | TGI [44]: > 10 µM | GI50 [45]: > 10 µM | TGI [45]: > 10 µM | GI50 [58]: > 10 µM | TGI [58]: > 10 µM | GI50 [46]: > 10 µM | TGI [46]: > 10 µM | GI50 [47]: > 10 µM | TGI [47]: > 10 µM | GI50 [48]: > 10 µM | TGI [48]: > 10 µM | GI50 [49]: > 10 µM | TGI [49]: > 10 µM | GI50 [50]: > 10 µM | TGI [50]: > 10 µM | GI50 [51]: > 10 µM | TGI [51]: > 10 µM | GI50 [52]: > 10 µM | TGI [52]: > 10 µM | GI50 [53]: > 10 µM | TGI [53]: > 10 µM | GI50 [54]: > 10 µM | TGI [54]: > 10 µM | GI50 [55]: > 10 µM | TGI [55]: > 10 µM
